This passage reports IC50, EC50 and Selectivity ratio results from ChEMBL document CHEMBL4000221 (Bioorg Med Chem Lett, 2017).

Test [1] addresses T1, Sodium-dependent serotonin transporter (Homo sapiens, UniProt P31645). Kind of test: Inhibition of [3H]5-HT uptake by SERT primary site (S1) (unknown origin) expressed in African green monkey COS1 cells after 10 mins by TopCount scintillation counting method. In kind it is cell-based.
Test [2] deals with T1, Sodium-dependent serotonin transporter.
The target is the same in test [3]. The source holds these as a separate data set.
Test [4] is filed under the species Homo sapiens. In words: Selectivity ratio of EC50 for inhibition of [3H]-S-citalopram dissociation from human SERT allosteric modulator site (S2) expressed in African green monkey COS7 cell membranes to IC50 for displacement of [3H]-S-citalopram from human SERT primary site (S1) expressed in African green monkey COS7 cell membranes.
The target in test [5] is T1, Sodium-dependent serotonin transporter. This is another data set of the same source.
The species named for test [6] is Homo sapiens. Kind of test: Selectivity ratio of EC50 for inhibition of [3H]-S-citalopram dissociation from SERT allosteric modulator site (S2) (unknown origin) expressed in African green monkey COS1 cell membranes to IC50 for [3H]5-HT uptake by SERT primary site (S1) (unknown origin) expressed in African green monkey COS1 cells. In kind it is cell-based.

T1 sequence (P31645 whole entry): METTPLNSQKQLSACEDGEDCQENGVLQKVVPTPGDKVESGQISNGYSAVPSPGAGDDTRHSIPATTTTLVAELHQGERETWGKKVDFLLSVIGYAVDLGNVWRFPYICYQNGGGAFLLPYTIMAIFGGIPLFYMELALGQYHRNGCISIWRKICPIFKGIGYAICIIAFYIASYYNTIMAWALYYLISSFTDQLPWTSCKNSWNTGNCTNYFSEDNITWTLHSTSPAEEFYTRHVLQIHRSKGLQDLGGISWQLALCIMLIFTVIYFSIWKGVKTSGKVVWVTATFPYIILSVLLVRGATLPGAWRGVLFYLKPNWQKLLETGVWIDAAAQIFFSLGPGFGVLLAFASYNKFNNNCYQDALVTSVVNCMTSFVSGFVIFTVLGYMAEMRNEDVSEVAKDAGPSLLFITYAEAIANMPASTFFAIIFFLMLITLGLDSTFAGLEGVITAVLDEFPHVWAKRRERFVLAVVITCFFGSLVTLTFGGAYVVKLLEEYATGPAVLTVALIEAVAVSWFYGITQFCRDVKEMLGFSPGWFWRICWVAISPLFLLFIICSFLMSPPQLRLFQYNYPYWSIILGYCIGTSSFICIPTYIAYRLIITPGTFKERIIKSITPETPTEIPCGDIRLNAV

Take `CN(C)CCCC1(c2ccc3ccccc3c2)OCc2cc(C#N)ccc21` (stereo in doubt; 1) [listing 1 of 2 here]: in test [1], 34 nM corresponded to half-maximal inhibition (IC50). In addition, in test [2], a half-maximal response (EC50) required 68000 nM.
In the same order, the values of `CN(C)CCCC1(c2ccc3ccccc3c2)OCc2cc(C#N)ccc21` (single isomer, unassigned; enantiomer 2) [listing 1 of 2 here] are 150 nM and 55000 nM.
In the case of `CCN(C)CCC[C@@]1(c2ccc(F)cc2)OCc2cc(C#N)ccc21`, in test [3], the response was half-maximal at 7700 nM (EC50). Also, in the test filed under Homo sapiens [4], the Selectivity ratio was determined as 28. The molecule further yielded an IC50 in test [5] of 280 nM.
In test [1], `CN(C)CCCC1(c2cccc3ccccc23)OCc2cc(C#N)ccc21` (single isomer, unassigned; enantiomer 2) [listing 1 of 2 here] came in with an IC50 of 280 nM. The EC50 in test [2] stood at 19000 nM.
Turning to `CN(C)CCCC1(c2ccc(F)cc2)OCc2cc3ccccc3cc21` (stereo not drawn), the Selectivity ratio in the test listed under Homo sapiens [6] was found to be 12000. In test [1], the IC50 worked out at 8 nM. Further, a half-maximal response in test [2] (EC50) required 95000 nM.
`CCCCN(C)CCC[C@@]1(c2ccc(F)cc2)OCc2cc(C#N)ccc21` had an EC50 in test [3] of 2900 nM. For the same molecule, the Selectivity ratio in the test filed under Homo sapiens [4] worked out at 18. In test [5], the IC50 turned out to be 160 nM.
On to `CN(C)CCCC1(c2ccc(F)cc2)OCc2c1ccc1ccccc21` (stereo not drawn), for which, in the test filed under Homo sapiens [6], the Selectivity ratio is 7800. The molecule also had an IC50 in test [1] of 4 nM. Moreover, the EC50 in test [2] is 31000 nM.
`CCN(C)CCC[C@]1(c2ccc(F)cc2)OCc2cc(C#N)ccc21` yielded an EC50 in test [3] of 19900 nM. Moreover, the Selectivity ratio in the test listed under Homo sapiens [4] stood at 8.7. The molecule further gave an IC50 in test [5] of 2300 nM.
With `CN(C)CCCC1(c2ccc3ccccc3c2)OCc2cc(C#N)ccc21` (single isomer, unassigned) [listing 1 of 2 here], in the test filed under Homo sapiens [6], the Selectivity ratio turned out to be 4100.
With `CN(C)CCCC1(c2ccc(F)cc2)OCc2ccc3ccccc3c21` (stereo not drawn), the Selectivity ratio in the test listed under Homo sapiens [6] was 3200. The IC50 in test [1] was determined as 12 nM. The molecule further came in with an EC50 in test [2] of 38000 nM.
In the case of `CCCCN(C)CCC[C@]1(c2ccc(F)cc2)OCc2cc(C#N)ccc21`, in test [3], the EC50 stood at 14500 nM. Besides, the Selectivity ratio in the test listed under Homo sapiens [4] came to 13. In test [5], this molecule came in with an IC50 of 1100 nM.
As for `CN(C)CCCC1(c2cc(Cl)cc(Cl)c2)OCc2ccccc21` (stereo in doubt; 4) [listing 1 of 2 here], half-maximal inhibition in test [1] (IC50) was put at 340 nM. In test [2], this molecule gave an EC50 of 15000 nM.
Consider `CN(C)CCCC(=O)c1ccc2c(c1)COC2(CCCN(C)C)c1ccc(F)cc1` (stereo not drawn), for which the Selectivity ratio in the test filed under Homo sapiens [6] stood at 450000. This molecule registered an IC50 in test [1] of 1.6 nM. Moreover, in test [2], the EC50 amounted to 714000 nM.
In test [1], `CN(C)CCCC1(c2cccc3ccccc23)OCc2cc(C#N)ccc21` (stereo in doubt; 2) [listing 1 of 2 here] registered an IC50 of 250 nM. In test [2], this molecule displayed an EC50 of 19000 nM.
Consider `CN(C)CCCC1(c2cccc3ccccc23)OCc2cc(C#N)ccc21` (single isomer, unassigned; enantiomer 2) [listing 2 of 2 here], for which the Selectivity ratio in the test listed under Homo sapiens [6] was 68.
In the case of `CN(C)CCCC1(c2cccc3ccccc23)OCc2cc(C#N)ccc21` (stereo in doubt; 2) [listing 2 of 2 here], the Selectivity ratio in the test listed under Homo sapiens [6] turned out to be 76.
Take `CN(C)CCCC1(c2cccc3ccccc23)OCc2cc(C#N)ccc21` (single isomer, unassigned; enantiomer 1) [listing 1 of 2 here]: the Selectivity ratio in the test filed under Homo sapiens [6] stood at 19.
In test [1], `CN(C)CCCC1(c2cc(Cl)cc(Cl)c2)OCc2ccccc21` (single isomer, unassigned; enantiomer 2) [listing 1 of 2 here] had a half-inhibitory concentration (IC50) of 300 nM. Further, the EC50 in test [2] came to 20000 nM.
`CN(C)CCCC1(c2cc(Cl)cc(Cl)c2)OCc2ccccc21` (stereo in doubt; 4) [listing 2 of 2 here]: in the test filed under Homo sapiens [6], the Selectivity ratio stood at 44.
For `CN(C)CCCC1(c2cccc3ccccc23)OCc2cc(C#N)ccc21` (single isomer, unassigned; enantiomer 1) [listing 2 of 2 here], half-maximal inhibition in test [1] (IC50) was put at 740 nM. Besides, the concentration giving a half-maximal response (EC50) in test [2] was 14000 nM.
With `CN(C)CCCC1(c2ccc3ccccc3c2)OCc2cc(C#N)ccc21` (single isomer, unassigned) [listing 2 of 2 here], the midpoint of inhibition in test [1], the IC50, lay at 10 nM. This molecule also displayed an EC50 in test [2] of 41000 nM.
In test [3], `CCCN(C)CCC[C@]1(c2ccc(F)cc2)OCc2cc(C#N)ccc21` registered an EC50 of 20300 nM. Moreover, in the test listed under Homo sapiens [4], the Selectivity ratio turned out to be 8.5. Further, in test [5], the IC50 was determined as 2400 nM.
Turning to `CCCCCN(C)CCC[C@@]1(c2ccc(F)cc2)OCc2cc(C#N)ccc21`, the response in test [3] was half-maximal at 1600 nM (EC50). In the test filed under Homo sapiens [4], the Selectivity ratio is 21. Besides, in test [5], the IC50 was 75 nM.
As for `CN(C)CCCC1(c2cc(Cl)cc(Cl)c2)OCc2ccccc21` (single isomer, unassigned; enantiomer 2) [listing 2 of 2 here], the Selectivity ratio in the test listed under Homo sapiens [6] came to 67.
`CCCN(C)CCC[C@@]1(c2ccc(F)cc2)OCc2cc(C#N)ccc21` had an EC50 in test [3] of 5900 nM. Besides, in the test listed under Homo sapiens [4], the Selectivity ratio turned out to be 31. The IC50 in test [5] is 190 nM.
`CN(C)CCCC1(c2ccc3ccccc3c2)OCc2cc(C#N)ccc21` (stereo in doubt; 1) [listing 2 of 2 here]: in the test filed under Homo sapiens [6], the Selectivity ratio is 2000.
In test [1], `CN(C)CCCC1(c2cc(Cl)cc(Cl)c2)OCc2ccccc21` (single isomer, unassigned; enantiomer 1) [listing 1 of 2 here] gave an IC50 of 350 nM. In test [2], the EC50 was found to be 8800 nM.
`CN(C)CCCC1(c2cc(Cl)cc(Cl)c2)OCc2ccccc21` (single isomer, unassigned; enantiomer 1) [listing 2 of 2 here]: in the test listed under Homo sapiens [6], the Selectivity ratio is 25.
`CN(C)CCCC1(c2ccc3ccccc3c2)OCc2cc(C#N)ccc21` (single isomer, unassigned; enantiomer 2) [listing 2 of 2 here]: the Selectivity ratio in the test listed under Homo sapiens [6] worked out at 370.
As for `CN(C)CCCC1(c2ccc(Cl)c(Cl)c2)OCc2ccccc21` (stereo not drawn), the Selectivity ratio in the test filed under Homo sapiens [6] came out at 2300. The same molecule yielded an IC50 in test [1] of 13 nM. Besides, the EC50 in test [2] worked out at 29600 nM.
